Measured values reported in patent US6239138A, “Vitronectin receptor antagonist” (SmithKline Beecham Corporation, priority 1999, dated 2001).
pKi: −log10 of the molar value.

Key:
osteoclasts = settings: Sato et al. 1990 (echistatin); Bertolini et al. (cyclic peptide); cited from earlier work
bone resorption [1] = settings: Sato et al., J. Cell Biol. 1990; cited from earlier work
bone resorption [2] = settings: rat; Fisher et al., Endocrinology 1993; cited from earlier work
[3] = target: T1, αvβ3 (vitronectin receptor) (Homo sapiens, UniProt P05106+P06756); experiment: Solid-phase [3H]-SK&F-107260 binding to αvβ3 (inhibition of vitronectin binding); settings: [3H]-SK&F-107260 as ligand, 5.0 nM; human placenta or platelet αvβ3
T1 construct: Human placenta or human platelet αvβ3; from tissue; host or cells: human placenta or human platelets
T1 sequence (P06756 31-889 limits assumed): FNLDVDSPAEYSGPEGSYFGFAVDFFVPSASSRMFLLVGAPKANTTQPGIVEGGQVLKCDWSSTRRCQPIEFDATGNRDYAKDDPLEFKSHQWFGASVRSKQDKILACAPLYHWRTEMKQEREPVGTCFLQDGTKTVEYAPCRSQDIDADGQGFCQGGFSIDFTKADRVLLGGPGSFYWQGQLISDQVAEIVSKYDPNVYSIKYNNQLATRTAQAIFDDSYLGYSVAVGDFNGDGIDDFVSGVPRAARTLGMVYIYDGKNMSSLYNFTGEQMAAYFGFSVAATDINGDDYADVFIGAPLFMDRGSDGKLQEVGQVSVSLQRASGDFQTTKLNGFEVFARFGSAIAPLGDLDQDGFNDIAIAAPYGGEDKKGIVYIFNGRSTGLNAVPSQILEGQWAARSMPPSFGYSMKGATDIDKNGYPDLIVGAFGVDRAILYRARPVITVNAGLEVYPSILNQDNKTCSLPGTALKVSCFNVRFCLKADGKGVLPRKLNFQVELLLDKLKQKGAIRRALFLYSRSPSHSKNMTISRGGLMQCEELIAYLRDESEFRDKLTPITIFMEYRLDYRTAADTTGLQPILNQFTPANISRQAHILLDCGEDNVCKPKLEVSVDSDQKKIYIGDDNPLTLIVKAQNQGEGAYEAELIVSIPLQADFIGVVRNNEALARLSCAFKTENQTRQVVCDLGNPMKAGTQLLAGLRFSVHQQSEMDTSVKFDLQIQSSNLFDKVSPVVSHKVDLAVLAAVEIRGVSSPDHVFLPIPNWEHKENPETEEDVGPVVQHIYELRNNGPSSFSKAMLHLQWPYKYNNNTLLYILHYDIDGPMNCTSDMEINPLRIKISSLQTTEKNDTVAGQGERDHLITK
T1 sequence (P06756 891-1048 partner limits assumed): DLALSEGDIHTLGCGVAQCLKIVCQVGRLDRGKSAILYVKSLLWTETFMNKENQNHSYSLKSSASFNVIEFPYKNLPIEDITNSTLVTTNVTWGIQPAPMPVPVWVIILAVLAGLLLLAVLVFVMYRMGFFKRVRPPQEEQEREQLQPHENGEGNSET
T1 sequence (P05106 27-788): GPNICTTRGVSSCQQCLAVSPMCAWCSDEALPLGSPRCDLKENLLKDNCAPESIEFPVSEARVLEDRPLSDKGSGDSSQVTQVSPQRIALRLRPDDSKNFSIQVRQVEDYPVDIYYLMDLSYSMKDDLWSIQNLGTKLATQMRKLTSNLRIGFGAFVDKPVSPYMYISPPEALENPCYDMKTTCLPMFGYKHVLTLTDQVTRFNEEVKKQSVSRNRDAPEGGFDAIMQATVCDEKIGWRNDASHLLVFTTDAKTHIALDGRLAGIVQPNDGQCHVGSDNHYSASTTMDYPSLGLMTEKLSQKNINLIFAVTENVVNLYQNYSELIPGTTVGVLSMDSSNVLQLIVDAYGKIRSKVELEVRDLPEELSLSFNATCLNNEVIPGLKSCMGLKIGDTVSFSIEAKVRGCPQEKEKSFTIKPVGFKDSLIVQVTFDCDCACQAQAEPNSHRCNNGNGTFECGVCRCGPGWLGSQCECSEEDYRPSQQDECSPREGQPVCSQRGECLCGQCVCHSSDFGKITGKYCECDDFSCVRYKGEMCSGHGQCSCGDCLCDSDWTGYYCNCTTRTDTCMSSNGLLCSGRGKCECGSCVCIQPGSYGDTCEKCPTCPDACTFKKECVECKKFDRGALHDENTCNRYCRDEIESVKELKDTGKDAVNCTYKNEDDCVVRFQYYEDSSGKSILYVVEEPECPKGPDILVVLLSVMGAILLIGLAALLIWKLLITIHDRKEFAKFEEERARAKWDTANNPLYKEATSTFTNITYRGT
Procedure: Solid-Phase [^3 H]-SK&F-107260 Binding to αvβ3 : Human placenta or human platelet αvβ3 (0.1-0.3 mg/mL) in buffer T (containing 2 mM CaCl2 and 1% octylglucoside) was diluted with buffer T containing 1 mM CaCl2, 1 mM MnCl2, 1 mM MgCl2 (buffer A) and 0.05% NaN3, and then immediately added to 96-well ELISA plates (Corning, New York, N.Y.) at 0.1 mL per well. 0.1-0.2 ,g of αvβ3 was added per well. The plates were incubated overnight at 4° C. At the time of the experiment, the wells were washed once with buffer A and were incubated with 0.1 mL of 3.5% bovine serum albumin in the same buffer for 1 hr at room temperature. Following incubation the wells were aspirated completely and washed twice with 0.2 mL buffer A. […]
The plates were incubated for 1 hr at room temperature. […] The receptors were solubilized with 0.1 mL of 1% SDS and the bound [^3 H]-SK&F-107260 was determined by liquid scintillation counting with the addition of 3 mL Ready Safe in a Beckman LS Liquid Scintillation Counter, with 40% efficiency. Nonspecific binding of [^3 H]-SK&F-107260 was determined in the presence of 2 LM SK&F-107260 and was consistently less than 1% of total radioligand input. […] The Ki (dissociation constant of the antagonist) was calculated according to the equation: Ki =IC50 /(1+L/Kd), where L and Kd were the concentration and the dissociation constant of [^3 H]-SK&F-107260, respectively.

Row | Compound | inhibition of attachment of osteoclasts to bone (osteoclasts) | inhibition of bone resorption in tissue culture (bone resorption [1]) | inhibition of bone resorption in vivo (bone resorption [2]) | pKi [3]
1 | echistatin | inhibits attachment of osteoclasts to bone | potent inhibitor of bone resorption in tissue culture | inhibits bone resorption in vivo in the rat | –
2 | cylco-S,S-N^α -acetyl-cysteinyl-N^α -methyl-argininyl-glycyl-aspartyl-penicillamine | inhibits osteoclast attachment to bone | – | – | –
3 | O=C(O)CC1Cc2ccc(OCCCNc3ccccn3)cc2CCC1=O (racemic) [(±)-2-(2-Pyridylamino)propoxy-6,7,8,9-tetrahydro-7-oxo-5H-benzocycloheptenyl-6-acetic acid] | – | – | – | ~7.64
